From PubChem BioAssay AID248 (DTP/NCI, 2004)
Several values for one entry are separate records, joined by “and”; a condition that tells them apart may be missing. Equal values may be shown once. Inconclusive results and toxic doses are left out. Cut-off read from the data, not from the text of the source: active = T/C of 150% or more; inactive = T/C below 125%.

Tested on: L1210 leukemia ip in BDF1 mice, survival T/C
Experiment: NCI In Vivo Anticancer Drug Screen. Data for tumor model L1210 Leukemia (intraperitoneal) in B6D2F1 (BDF1) mice
Settings: endpoint: mean survival time, higher = longer survival
Summary of the method: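 Mice bearing the transplanted tumor received compound or vehicle. Survival of the treated group was divided by that of the vehicle-treated control group to give the ratio.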

[1] = dose: 100.0 mg/kg/injection, schedule: Q01DX001 (ip), vehicle: Klucel (hydroxypropylcellulose) (HPC)
[2] = dose: 200.0 mg/kg/injection, schedule: Q01DX001 (ip), vehicle: Klucel (hydroxypropylcellulose) (HPC)
[3] = dose: 100.0 mg/kg/injection, schedule: Q01DX001 (ip), vehicle: saline with Tween-80
[4] = dose: 100.0 mg/kg/injection, schedule: Q04DX003 (ip), vehicle: saline with Tween-80
[5] = dose: 200.0 mg/kg/injection, schedule: Q01DX001 (ip), vehicle: saline with Tween-80
[6] = dose: 200.0 mg/kg/injection, schedule: Q04DX003 (ip), vehicle: saline with Tween-80
[7] = dose: 400.0 mg/kg/injection, schedule: Q01DX001 (ip), vehicle: saline with Tween-80
[8] = dose: 400.0 mg/kg/injection, schedule: Q04DX003 (ip), vehicle: saline with Tween-80
[9] = dose: 100.0 mg/kg/injection, schedule: Q04DX003 (ip), vehicle: saline
[10] = dose: 200.0 mg/kg/injection, schedule: Q04DX003 (ip), vehicle: saline
[11] = dose: 400.0 mg/kg/injection, schedule: Q04DX003 (ip), vehicle: saline
[12] = dose: 100.0 mg/kg/injection, schedule: Q04DX002 (ip), vehicle: Klucel (hydroxypropylcellulose) (HPC)
[13] = dose: 200.0 mg/kg/injection, schedule: Q04DX002 (ip), vehicle: Klucel (hydroxypropylcellulose) (HPC)
[14] = dose: 400.0 mg/kg/injection, schedule: Q04DX002 (ip), vehicle: Klucel (hydroxypropylcellulose) (HPC)
[15] = dose: 100.0 mg/kg/injection, schedule: Q01DX009 (ip), vehicle: saline
[16] = dose: 200.0 mg/kg/injection, schedule: Q01DX009 (ip), vehicle: saline
[17] = dose: 100.0 mg/kg/injection, schedule: Q01DX009 (ip), vehicle: Klucel (hydroxypropylcellulose) (HPC)
[18] = dose: 100.0 mg/kg/injection, schedule: Q04DX003 (ip), vehicle: Klucel (hydroxypropylcellulose) (HPC)
[19] = dose: 200.0 mg/kg/injection, schedule: Q01DX009 (ip), vehicle: Klucel (hydroxypropylcellulose) (HPC)
[20] = dose: 200.0 mg/kg/injection, schedule: Q04DX003 (ip), vehicle: Klucel (hydroxypropylcellulose) (HPC)
[21] = dose: 400.0 mg/kg/injection, schedule: Q01DX009 (ip), vehicle: Klucel (hydroxypropylcellulose) (HPC)
[22] = dose: 100.0 mg/kg/injection, schedule: Q01DX009 (ip), vehicle: saline with Tween-80
[23] = dose: 400.0 mg/kg/injection, schedule: Q01DX009 (ip), vehicle: saline

Measured: T/C

COc1ccc(-n2c(=O)c(N=Nc3ccc(Cl)cc3)c(O)n(-c3ccccc3OC)c2=S)cc1
inactive: dose: 50.0 mg/kg/injection, schedule: Q01DX001 (ip), vehicle: Klucel (hydroxypropylcellulose) (HPC) 110 % of control | [1] 102 % of control | [2] 100 % of control

O=S(=O)(CCCCCl)Nc1ccc(NS(=O)(=O)CCCCCl)cc1
inactive: [3] 102 % of control | [4] 97 % of control | [5] 92 % of control | [6] 90 % of control | [7] 92 % of control | [8] 92 % of control

FC1(F)SC2C3CC(C4CCC=C43)C2C1(F)F (centres undefined)
inactive: dose: 0.78 mg/kg/injection, schedule: Q01DX009 (ip), vehicle: Klucel (hydroxypropylcellulose) (HPC) 96 % of control | dose: 1.56 mg/kg/injection, schedule: Q01DX009 (ip), vehicle: Klucel (hydroxypropylcellulose) (HPC) 93 % of control | dose: 1.56 mg/kg/injection, schedule: Q04DX003 (ip), vehicle: Klucel (hydroxypropylcellulose) (HPC) 102 % of control | dose: 3.13 mg/kg/injection, schedule: Q04DX003 (ip), vehicle: Klucel (hydroxypropylcellulose) (HPC) 100 % of control

CCOC(=O)n1ccc2nc3ccccc3cc21
inactive: [1] 100 % of control | [2] 105 % of control | dose: 400.0 mg/kg/injection, schedule: Q01DX001 (ip), vehicle: Klucel (hydroxypropylcellulose) (HPC) 90 % of control

O=C(O)C1CC(Br)C2CC1C(=O)O2 (centres undefined)
inactive: [9] 91 % of control | [10] 105 % of control | [11] 97 % of control

CCCCCCCCCSCC
inactive: [4] 102 % of control | [6] 96 % of control | [8] 102 % of control

CC(C)c1ccc2c(c1)CCC1C(CN=C(N)CSS(=O)(=O)O)CCCC21C (centres undefined)
inactive: dose: 75.0 mg/kg/injection, schedule: Q01DX001 (ip), vehicle: saline with Tween-80 95 % of control | dose: 150.0 mg/kg/injection, schedule: Q01DX001 (ip), vehicle: saline with Tween-80 102 % of control

COc1ccc(C(=O)/C=C\c2ccc(Cl)c(Cl)c2)cc1
inactive: [12] 100 % of control | [13] 97 % of control | [14] 107 % of control

O=c1[nH]ncc2ccc([N+](=O)[O-])cc12
inactive: dose: 75.0 mg/kg/injection, schedule: Q01DX001 (ip), vehicle: other 103 % of control | dose: 150.0 mg/kg/injection, schedule: Q01DX001 (ip), vehicle: other 101 % of control

C1CCC(CCCC(CCCC2CCCC2)CCCC2CCCC2)C1
inactive: [3] 93 % of control | [5] 93 % of control | [7] 89 % of control

O=C(O)CC(C(=O)O)=C1CCCCC1
inactive: dose: 50.0 mg/kg/injection, schedule: Q01DX009 (ip), vehicle: saline 98 % of control | [15] 98 % of control | [16] 100 % of control

O=C(OCCOc1ccc(Cl)cc1Cl)c1cc(I)cc(I)c1I
inactive: [12] 111 % of control | [13] 101 % of control | [14] 104 % of control

Nc1ccc2c(c1)Cc1cc(Br)ccc1-2
inactive: [17] 103 % of control | [18] 96 % of control | [19] 101 % of control | [20] 102 % of control | [21] 101 % of control | dose: 400.0 mg/kg/injection, schedule: Q04DX003 (ip), vehicle: Klucel (hydroxypropylcellulose) (HPC) 108 % of control

Cc1cc[n+](Cc2cc3ccccc3[nH]c2=O)cc1
inactive: dose: 12.5 mg/kg/injection, schedule: Q01DX001 (ip), vehicle: saline 96 % of control | dose: 25.0 mg/kg/injection, schedule: Q01DX001 (ip), vehicle: saline 100 % of control | dose: 50.0 mg/kg/injection, schedule: Q01DX001 (ip), vehicle: saline 95 % of control

CC1CC(=O)NN1 (centres undefined)
inactive: [22] 94 % of control | dose: 200.0 mg/kg/injection, schedule: Q01DX009 (ip), vehicle: saline with Tween-80 90 % of control | dose: 400.0 mg/kg/injection, schedule: Q01DX009 (ip), vehicle: saline with Tween-80 96 % of control

Cc1ccc(S(=O)(=O)OCCN(CCOS(=O)(=O)c2ccc(C)cc2)c2ccc(C=O)cc2)cc1
inactive: dose: 50.0 mg/kg/injection, schedule: Q01DX001 (ip), vehicle: carboxymethylcellulose (CMC) 114 % of control | dose: 100.0 mg/kg/injection, schedule: Q01DX001 (ip), vehicle: carboxymethylcellulose (CMC) 102 % of control and 120 % of control | dose: 175.0 mg/kg/injection, schedule: Q01DX001 (ip), vehicle: carboxymethylcellulose (CMC) 121 % of control | dose: 200.0 mg/kg/injection, schedule: Q01DX001 (ip), vehicle: carboxymethylcellulose (CMC) 98 % of control and 122 % of control | dose: 265.0 mg/kg/injection, schedule: Q01DX001 (ip), vehicle: carboxymethylcellulose (CMC) 116 % of control | dose: 600.0 mg/kg/injection, schedule: Q01DX001 (ip), vehicle: carboxymethylcellulose (CMC) 115 % of control

CN(C)P1(=O)N(C)CCN1C
inactive: dose: 100.0 mg/kg/injection, schedule: Q01DX001 (ip), vehicle: saline 100 % of control | dose: 200.0 mg/kg/injection, schedule: Q01DX001 (ip), vehicle: saline 98 % of control | dose: 400.0 mg/kg/injection, schedule: Q01DX001 (ip), vehicle: saline 94 % of control

Cc1c([N+](=O)[O-])cc(C(C)(C)C)c(OC(=O)Nc2ccc(Cl)cc2)c1[N+](=O)[O-]
inactive: [18] 95 % of control | [20] 92 % of control

O=C(CI)OCCCl
inactive: dose: 12.5 mg/kg/injection, schedule: Q01DX009 (ip), vehicle: other 94 % of control | dose: 25.0 mg/kg/injection, schedule: Q01DX009 (ip), vehicle: other 97 % of control | dose: 50.0 mg/kg/injection, schedule: Q01DX009 (ip), vehicle: other 97 % of control

CC(C)C(C#N)(CCN1CCCCC1)c1cccc2ccccc12 (centres undefined)
inactive: [17] 92 % of control

O=C(c1ccccc1)C1(Br)CCCCC1
inactive: [17] 96 % of control | [15] 95 % of control | [19] 96 % of control | [21] 93 % of control | [23] 101 % of control

CN(C)/C=N/NC(=O)c1ccncc1
inactive: [15] 94 % of control | [9] 88 % of control | [16] 97 % of control | [10] 100 % of control | [23] 108 % of control | [11] 96 % of control

CNC(=O)Nc1ncnn1Cc1ccccc1
inactive: [15] 92 % of control | [16] 97 % of control

O=C(O)c1cocc1C(=O)O
inactive: [12] 91 % of control | [13] 91 % of control

Cc1cc(OC(=O)Nc2ccc(Cl)cc2Cl)c(C)cc1Cl
inactive: dose: 12.5 mg/kg/injection, schedule: Q01DX009 (ip), vehicle: saline with Tween-80 95 % of control | dose: 25.0 mg/kg/injection, schedule: Q01DX009 (ip), vehicle: saline with Tween-80 91 % of control | dose: 50.0 mg/kg/injection, schedule: Q01DX009 (ip), vehicle: saline with Tween-80 91 % of control | [22] 98 % of control
